Results as given in US12281080B2, “Quinoline-based compounds and methods of inhibiting CDK8/19” (University of South Carolina, priority 2018, dated 2025).
Read-outs that look alike come from different tables or passages of the source.

Legend:
[1] = tested on: CDK8/19-mediated NFκB-driven transcription; assay: NFκB-dependent luciferase reporter assay in parental 293 reporter cells; assay type: cell-based, human; details: for Inhibition of NFκB reporter activity / inhibition at 1 µM: 1 uM
IL8 = assay: QPCR gene expression in TNFα-treated HEK293 cells; assay type: cell-based, human; details: 1 μM, TNFα-treated HEK293 cells, QPCR; for inhibition at 1 µM: Homo sapiens, read-out: Inhibition at 1 μM (% Ctrl) IL8
Text: (§1) Two types of cell-based assays for CDK8/19 inhibition were used to test the efficacy of quinoline quinolone compounds described herein (FIG. 3A). The first cell-based assay, which measures the effects of CDK8/19 inhibitors on RNA levels of CDK8/19-regulated genes by quantitative reverse transcription-PCR (QPCR), is based on the ability of CDK8/19 inhibitors to suppress the induction of NFκB-inducible genes by TNFα and to inhibit basal expression of MYC in human embryonic kidney (HEK) 293 cells, as previously described. In this assay, 293 cells growing in DMEM (High-glucose) media supplemented with 10% FBS are pre-treated with the tested inhibitors or DMSO control for 1 hour and then treated with 10 ng/mL TNFα (an activator of NFκB) for 2 hours (in the presence or absence of the tested inhibitors), followed by RNA extraction and QPCR analysis of RNA expression of specific genes conducted as described (Chen et al., ibid), using housekeeping genes RPL13A and GAPDH as normalization standards. […] All the quinoline derivatives inhibited the expression of all three genes.

CXCL1 = assay: QPCR gene expression in TNFα-treated HEK293 cells; assay type: cell-based, human; details: 1 μM, TNFα-treated HEK293 cells, QPCR; for inhibition at 1 µM: Homo sapiens, read-out: Inhibition at 1 μM (% Ctrl) CXCL1
Text: as §1

MYC = assay: QPCR gene expression in TNFα-treated HEK293 cells; assay type: cell-based, human; details: 1 μM, TNFα-treated HEK293 cells, QPCR; for inhibition at 1 µM: Homo sapiens, read-out: Inhibition at 1 μM (% Ctrl) MYC
Text: as §1

[2] = Mouse pharmacokinetics, intraperitoneal, serum; assay type: in vivo, mice; details: i.p. 27 mg/kg, male Balb/c mice
Method: […] Blood samples were collected at different time points (5 mice per time point) and Senexin C concentration in the serum was measured by LC/MS/MS.

MAP4K2 = MAP4K2 (Homo sapiens (Human), UniProt Q12851); assay: DiscoverX Kd assay; details: average from duplicate measurements
CDK8 = CDK8 (Homo sapiens (Human), UniProt P49336); assay: DiscoverX Kd assay; details: average from duplicate measurements
HASPIN = HASPIN (Homo sapiens (Human), UniProt Q8TF76); assay: DiscoverX Kd assay; details: average from duplicate measurements
CDK8/19 = assay: Wash-off assay, MYC and JUN expression in 293 cells (QPCR); assay type: cell-based, human; details: 1 μM for 2 hours, then wash-off
Method: RNA was extracted at different time points after wash-off (up to 24 hrs) and expression of MYC and JUN genes that are CDK8/19-dependent in these cells was measured by QPCR. […] In contrast, after Senexin C treatment and wash-off, the effects of Senexin C were largely retained for at least 6 hrs after wash-off.

MYO3B = MYO3B (Homo sapiens (Human), UniProt Q8WXR4); assay: DiscoverX Kd assay
[3] = tested on: NFκB-dependent promoter in CDK8/19 deficient (double-knockout) reporter cells; assay: NFκB-dependent luciferase reporter assay, CDK8/19 double-knockout vs wild-type 293 cells; details: double-knockout vs parental reporter cells
Text: The second cell-based assay measures the effects of CDK8/19 on the expression of firefly luciferase reporter from a NFκB-dependent promoter in 293 cells.

HL60-Luc cells = assay: HL60-Luc proliferation assay (BLI); assay type: cell-based; details: HL-60-Luc, 168 h; 7 days
Method: The anti-leukemic activity was also evaluated with a HL60 assay. The HL60 assay was performed by a similar procedure as MV4-11 assay. A derivative of the HL-60 leukemia cell line was generated to express Luciferase and ZsGreen by lentiviral infection with pHIV-Luc-ZsGreen, to enable leukemia growth analysis by bioluminescence imaging (BLI). The initial Luciferase-ZsGreen transduced cell population was sorted for ZsGreen positivity with fluorescence activated cell sorting and individual clones were tested for luciferase expression. […] The HL-60 assay was performed in 96-well plates by treating the HL60-Luc cells with testing compounds at different concentrations for 7 days, followed by BLI to quantify the effects of test articles on cell proliferation.

[4] = molecular target: CDK8 in complex with Cyclin C (Homo sapiens (Human), UniProt P49336); assay: LanthaScreen Eu Kinase Binding Assay
Text: The binding of the tracer to the kinase is detected using a europium-labeled anti-tag antibody, which binds to the kinase of interest. […] The binding of an inhibitor to the kinase competes for binding with the tracer, resulting in a loss of FRET.

MV4-11 cells = assay: MV4-11-Luc proliferation assay (BLI); assay type: cell-based; details: Homo sapiens, MV4-11, 168 h; 7 days
Method: The anti-leukemic activity was evaluated with a MV4-11 assay. The population of MV4-11 cells, which depend on CDK8/19 for their proliferation, was made to express Luciferase and ZsGreen by lenvtiral infection with pHIV-Luc-ZsGreen, to enable leukemia growth analysis by bioluminescence imaging (BLI). The initial Luciferase-ZsGreen transduced cell population was sorted for ZsGreen positivity with fluorescence activated cell sorting. The MV4-11 assay was performed in 96-well plates by treating the MV4-11-Luc cells with testing compounds at different concentrations for 7 days, followed by BLI to quantify the effects of test articles on cell proliferation.

[5] = parental 293-derived reporter cell line, read-out: HEK293 NFKB CDK8 Reporter IC50
[6] = Homo sapiens, 293/NFkB-luc, read-out: IC50 (293-NFKB-Luc)

Sequence of CDK8 in complex with Cyclin C (P49336 whole entry): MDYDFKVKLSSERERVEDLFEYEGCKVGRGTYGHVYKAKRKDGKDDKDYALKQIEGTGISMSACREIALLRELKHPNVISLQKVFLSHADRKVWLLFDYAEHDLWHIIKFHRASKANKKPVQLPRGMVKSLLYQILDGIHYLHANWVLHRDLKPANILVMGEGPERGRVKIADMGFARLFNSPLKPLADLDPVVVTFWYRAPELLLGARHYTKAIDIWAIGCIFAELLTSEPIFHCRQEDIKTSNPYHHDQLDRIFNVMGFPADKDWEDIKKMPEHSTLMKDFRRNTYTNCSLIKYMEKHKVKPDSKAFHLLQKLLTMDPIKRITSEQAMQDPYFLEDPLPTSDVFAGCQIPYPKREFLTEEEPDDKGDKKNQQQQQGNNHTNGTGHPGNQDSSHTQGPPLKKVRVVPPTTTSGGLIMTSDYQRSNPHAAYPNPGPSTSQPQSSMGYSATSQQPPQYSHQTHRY
Sequence of CDK8 in complex with Cyclin C (P24863 whole entry partner): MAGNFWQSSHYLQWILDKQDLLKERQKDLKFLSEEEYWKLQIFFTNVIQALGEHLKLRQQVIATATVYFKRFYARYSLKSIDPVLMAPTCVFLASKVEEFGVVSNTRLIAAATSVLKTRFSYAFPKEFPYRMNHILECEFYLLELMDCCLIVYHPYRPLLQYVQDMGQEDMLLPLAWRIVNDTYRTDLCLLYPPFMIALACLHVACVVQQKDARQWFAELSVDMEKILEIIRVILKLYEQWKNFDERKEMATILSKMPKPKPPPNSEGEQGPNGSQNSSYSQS
Sequence of MAP4K2 (Q12851 whole entry): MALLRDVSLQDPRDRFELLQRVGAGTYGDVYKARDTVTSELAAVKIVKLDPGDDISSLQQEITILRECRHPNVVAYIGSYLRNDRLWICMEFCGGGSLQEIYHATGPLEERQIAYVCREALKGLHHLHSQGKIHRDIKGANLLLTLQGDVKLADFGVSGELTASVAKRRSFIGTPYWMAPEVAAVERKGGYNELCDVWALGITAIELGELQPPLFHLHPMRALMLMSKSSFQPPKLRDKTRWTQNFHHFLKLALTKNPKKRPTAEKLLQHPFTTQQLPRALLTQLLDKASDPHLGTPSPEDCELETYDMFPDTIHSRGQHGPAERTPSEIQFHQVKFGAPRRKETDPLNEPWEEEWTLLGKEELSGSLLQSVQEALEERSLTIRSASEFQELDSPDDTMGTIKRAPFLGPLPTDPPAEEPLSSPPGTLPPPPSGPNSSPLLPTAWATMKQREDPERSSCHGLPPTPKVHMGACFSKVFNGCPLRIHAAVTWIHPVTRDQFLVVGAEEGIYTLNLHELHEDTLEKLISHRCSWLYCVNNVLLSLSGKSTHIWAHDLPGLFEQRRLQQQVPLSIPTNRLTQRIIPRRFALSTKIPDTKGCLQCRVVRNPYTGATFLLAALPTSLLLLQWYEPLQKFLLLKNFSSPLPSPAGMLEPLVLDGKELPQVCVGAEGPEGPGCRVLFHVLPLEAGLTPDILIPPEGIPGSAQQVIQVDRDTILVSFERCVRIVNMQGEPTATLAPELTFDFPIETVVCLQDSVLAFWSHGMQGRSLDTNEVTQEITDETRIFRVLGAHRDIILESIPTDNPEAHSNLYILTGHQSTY
Sequence of CDK8 (P49336 whole entry): as the sequence (P49336 whole entry) above
Sequence of MYO3B (Q8WXR4 whole entry): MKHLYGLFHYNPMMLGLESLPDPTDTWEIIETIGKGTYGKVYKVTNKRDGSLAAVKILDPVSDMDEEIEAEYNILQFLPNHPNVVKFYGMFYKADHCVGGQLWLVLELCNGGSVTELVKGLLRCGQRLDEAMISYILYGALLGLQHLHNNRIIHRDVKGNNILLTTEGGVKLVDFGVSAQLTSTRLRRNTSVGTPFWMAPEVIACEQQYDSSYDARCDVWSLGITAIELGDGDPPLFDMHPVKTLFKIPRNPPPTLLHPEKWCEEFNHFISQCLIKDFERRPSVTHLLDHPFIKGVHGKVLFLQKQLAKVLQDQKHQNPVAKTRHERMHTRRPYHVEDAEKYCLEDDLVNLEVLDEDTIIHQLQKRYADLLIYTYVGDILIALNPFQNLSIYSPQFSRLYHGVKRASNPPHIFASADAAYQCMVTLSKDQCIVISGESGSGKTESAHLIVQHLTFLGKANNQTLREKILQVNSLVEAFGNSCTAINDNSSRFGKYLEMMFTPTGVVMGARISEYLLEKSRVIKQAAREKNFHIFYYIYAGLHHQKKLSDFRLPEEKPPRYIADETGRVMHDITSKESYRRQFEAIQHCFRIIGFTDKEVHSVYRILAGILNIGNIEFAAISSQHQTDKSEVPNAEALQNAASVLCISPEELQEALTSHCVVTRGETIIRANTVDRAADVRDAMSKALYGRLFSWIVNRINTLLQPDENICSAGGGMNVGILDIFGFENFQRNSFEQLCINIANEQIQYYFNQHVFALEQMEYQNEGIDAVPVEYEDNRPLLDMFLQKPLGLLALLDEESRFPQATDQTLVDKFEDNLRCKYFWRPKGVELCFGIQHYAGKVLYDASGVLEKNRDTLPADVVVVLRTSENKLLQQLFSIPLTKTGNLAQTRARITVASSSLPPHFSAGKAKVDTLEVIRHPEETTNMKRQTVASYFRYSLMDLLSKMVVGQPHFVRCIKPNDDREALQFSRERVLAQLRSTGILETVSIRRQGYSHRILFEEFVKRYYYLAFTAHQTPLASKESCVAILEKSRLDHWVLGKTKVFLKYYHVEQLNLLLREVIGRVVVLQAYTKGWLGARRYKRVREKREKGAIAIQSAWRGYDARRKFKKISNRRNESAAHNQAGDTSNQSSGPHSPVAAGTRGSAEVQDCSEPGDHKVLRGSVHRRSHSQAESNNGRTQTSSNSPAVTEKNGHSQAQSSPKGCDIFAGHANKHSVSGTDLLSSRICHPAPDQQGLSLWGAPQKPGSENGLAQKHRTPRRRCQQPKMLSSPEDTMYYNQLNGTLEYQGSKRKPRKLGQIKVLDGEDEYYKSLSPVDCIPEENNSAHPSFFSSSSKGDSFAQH
Sequence of HASPIN (Q8TF76 whole entry): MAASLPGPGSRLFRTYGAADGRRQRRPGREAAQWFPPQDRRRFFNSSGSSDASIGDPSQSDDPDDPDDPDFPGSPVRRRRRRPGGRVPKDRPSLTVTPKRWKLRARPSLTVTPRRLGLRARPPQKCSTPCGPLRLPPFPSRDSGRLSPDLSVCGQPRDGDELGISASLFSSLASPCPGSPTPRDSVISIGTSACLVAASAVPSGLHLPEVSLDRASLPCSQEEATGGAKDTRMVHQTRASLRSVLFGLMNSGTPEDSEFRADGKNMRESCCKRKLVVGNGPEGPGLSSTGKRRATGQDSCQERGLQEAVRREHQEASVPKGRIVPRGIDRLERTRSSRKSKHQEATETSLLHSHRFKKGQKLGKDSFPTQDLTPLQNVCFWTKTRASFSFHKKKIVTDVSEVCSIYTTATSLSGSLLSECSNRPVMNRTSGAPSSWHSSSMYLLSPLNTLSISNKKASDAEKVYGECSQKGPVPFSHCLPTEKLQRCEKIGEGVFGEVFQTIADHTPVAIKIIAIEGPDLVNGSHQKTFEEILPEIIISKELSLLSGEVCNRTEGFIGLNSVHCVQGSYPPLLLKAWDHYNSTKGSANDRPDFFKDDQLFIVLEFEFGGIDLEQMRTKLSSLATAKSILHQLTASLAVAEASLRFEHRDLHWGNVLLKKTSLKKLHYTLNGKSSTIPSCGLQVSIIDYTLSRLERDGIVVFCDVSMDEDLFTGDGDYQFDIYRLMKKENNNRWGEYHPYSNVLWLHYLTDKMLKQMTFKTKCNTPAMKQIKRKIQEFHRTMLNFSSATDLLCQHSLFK

| IC50 (HL60-Luc cells) | IC50 [4] | IC50 (MV4-11 cells) | Compound | IC50 [1, 6] | also measured |
| --- | --- | --- | --- | --- | --- |
| – | – | – | N#Cc1ccc2ncnc(NCCc3ccccc3)c2c1 [Senexin A, reference compound] | – | IC50 [1, 5]: 355 nM; Inhibition at 1 μM (% Ctrl) IL8 (IL8): 29.53%; Inhibition at 1 μM (% Ctrl) CXCL1 (CXCL1): 34.19%; Inhibition at 1 μM (% Ctrl) MYC (MYC): 24.94% |
| – | – | – | CN1CCN(C(=O)c2ccc3cc(CCNc4ncnc5ccc(C#N)cc45)ccc3c2)CC1 [Senexin B, reference compound] | – | AUC [2]: 1760.53 ng·h/mL; Cmax [2]: 4248 ng/mL; bioavailability (F %) [2]: 57%; elimination rate k [2]: 3.99 h⁻¹; t1/2 [2]: 10.2 min; Kd (MAP4K2): 570 nM; IC50 [1, 5]: 117 nM; Kd (CDK8): 59 nM; Kd (HASPIN): 1700 nM; Time to full restoration of JUN expression after wash-off (CDK8/19): 45 min; Time to full restoration of MYC expression after wash-off (CDK8/19): 2 h; Inhibition of MYO3B (MYO3B): not inhibited |
| – | – | – | Cc1ccc(S(=O)(=O)N[C@@H](Cc2ccccc2)C(=O)CCl)cc1 [TPCK, reference compound] | – | IC50 in CDK8/19-deficient cells relative to wild-type cells [3]: almost the same |
| – | – | – | CCCNc1ccnc2ccc(C#N)cc12 [compound 6134, 4-(propylamino)quinoline-6-carbonitrile] | – | inhibition at 1 µM (IL8): 62.1%; inhibition at 1 µM (CXCL1): 72.2%; inhibition at 1 µM (MYC): 57.2% |
| – | – | – | CC(C)Nc1ccnc2ccc(C#N)cc12 [compound 6136, 4-(isopropylamino)quinoline-6-carbonitrile] | – | inhibition at 1 µM (IL8): 74.1%; inhibition at 1 µM (CXCL1): 80.3%; inhibition at 1 µM (MYC): 65.6% |
| – | – | – | Clc1ccc2nccc(NCCc3ccccc3)c2c1 [compound 6145, 6-chloro-N-phenethylquinolin-4-amine] | – | Inhibition of NFκB reporter activity [1]: N.A. (8% inh. at 1 uM); inhibition at 1 µM ([1]; Homo sapiens): < 15% |
| – | – | – | Brc1ccc2nccc(NCCc3ccccc3)c2c1 [compound 6146, 6-bromo-N-phenethylquinolin-4-amine] | – | Inhibition of NFκB reporter activity [1]: N.A. (10% inh. at 1 uM); inhibition at 1 µM ([1]; Homo sapiens): < 15% |
| – | – | – | Ic1ccc2nccc(NCCc3ccccc3)c2c1 [compound 6147, 6-iodo-N-phenethylquinolin-4-amine] | – | inhibition at 1 µM ([1]; Homo sapiens): < 15% |
| – | – | – | FC(F)(F)c1ccc2nccc(NCCc3ccccc3)c2c1 [compound 6150, N-phenethyl-6-(trifluoromethyl)quinolin-4-amine] | – | Inhibition of NFκB reporter activity [1]: N.A. (10% inh. at 1 uM); inhibition at 1 µM ([1]; Homo sapiens): < 15% |
| – | – | – | Nc1ccc2nccc(NCCc3ccccc3)c2c1 [compound 6164, N4-phenethylquinoline-4,6-diamine] | – | inhibition at 5 µM ([1]; Homo sapiens, 5 uM): 5% |
| 73.4 nM | 9.7 nM | 92 nM | N#Cc1ccc2nccc(NCCc3ccc4cc(C(=O)N5CCSCC5)ccc4c3)c2c1 [compound 6294, 4-[2-[6-(thiomorpholine-4-carbonyl)-2-naphthyl]ethylamino]quinoline-6-carbonitrile] | 107 nM | – |
| 163 nM | 5.8 nM | 218 nM | N#Cc1ccc2nccc(NCCc3ccc4cc(C(=O)N5CC[S+]([O-])CC5)ccc4c3)c2c1 [compound 6295, 4-[2-[6-(1-oxo-1,4-thiazinane-4-carbonyl)-2-naphthyl]ethylamino]quinoline-6-carbonitrile] | 160 nM | – |
| 260 nM | 4.6 nM | 275 nM | N#Cc1ccc2nccc(NCCc3ccc4cc(C(=O)N5CCS(=N)(=O)CC5)ccc4c3)c2c1 [compound 6299, 4-[2-[6-(1-imino-1-oxo-1,4-thiazinane-4-carbonyl)-2-naphthyl]ethylamino]quinoline-6-carbonitrile] | 213 nM | – |
| 162 nM | 11.7 nM | 295 nM | CC(=O)N1CCN(C(=O)c2ccc3cc(CCNc4ccnc5ccc(C#N)cc45)ccc3c2)CC1 [compound 6326, 4-[2-[6-(4-acetylpiperazine-1-carbonyl)-2-naphthyl]ethylamino]quinoline-6-carbonitrile] | 178 nM | – |
| 154 nM | 9.3 nM | 181 nM | CN(CCCNC(=O)OC(C)(C)C)C(=O)c1ccc2cc(CCNc3ccnc4ccc(C#N)cc34)ccc2c1 [compound 6336, tert-butyl-N-[3-[[6-[2-[(6-cyano-4-quinolyl)amino]ethyl]naphthalene-2-carbonyl]-methyl-amino]propyl]carbamate] | 208 nM | – |
| 255 nM | 9.2 nM | – | CN(CCCN)C(=O)c1ccc2cc(CCNc3ccnc4ccc(C#N)cc34)ccc2c1 [compound 6337, N-(3-aminopropyl)-6-[2-[(6-cyano-4-quinolyl)amino]ethyl]-N-methyl-naphthalene-2-carboxamide] | 113 nM | – |
| 61 nM | 8.1 nM | 122 nM | CC(C)(C)OC(=O)NCCCN1CCN(C(=O)c2ccc3cc(CCNc4ccnc5ccc(C#N)cc45)ccc3c2)CC1 [compound 6345, tert-butyl-(3-(4-(6-(2-((6-cyanoquinolin-4-yl)amino)ethyl)-2-naphthoyl)piperazin-1-yl)propyl)carbamate] | 85 nM | – |
| 308 nM | 6.5 nM | – | N#Cc1ccc2nccc(NCCc3ccc4cc(C(=O)N5CCN(CCCN)CC5)ccc4c3)c2c1 [compound 6346, 4-[2-[6-[4-(3-aminopropyl)piperazine-1-carbonyl]-2-naphthyl]ethylamino]quinoline-6-carbonitrile] | 837 nM | – |
| 67 nM | 18.9 nM | 146 nM | CC(C)(C)OC(=O)N1CCN(C(=O)c2ccc3cc(CCNc4ccnc5ccc(C#N)cc45)ccc3c2)CC1 [compound 6440, tert-butyl 4-[6-[2-[(6-cyano-4-quinolyl)amino]ethyl]naphthalene-2-carbonyl]piperazine-1-carboxylate] | 137 nM | – |

| Compound | IC50 (HL60-Luc cells) | IC50 [4] | IC50 (MV4-11 cells) | IC50 [1, 6] | also measured |
| --- | --- | --- | --- | --- | --- |
| N#Cc1ccc2nccc(NCCc3ccc4cc(C(=O)N5CCN(CCCO)CC5)ccc4c3)c2c1 [compound 6216, 4-((2-(6-(4-(3-hydroxypropyl)piperazine-1-carbonyl)naphthalen-2-yl)ethyl)amino)quinoline-6-carbonitrile] | 161 nM | – | – | – | – |
| CN(C)C(=O)c1ccc2cc(CCNc3ccnc4ccc(C#N)cc34)ccc2c1 [compound 6219, 6-(2-((6-cyanoquinolin-4-yl)amino)ethyl)-N,N-dimethyl-2-naphthamide] | 77 nM | – | – | – | – |
| N#Cc1ccc2nccc(NCCc3ccc4cc(C(=O)N5CCNCC5)ccc4c3)c2c1 [compound 6283, 4-((2-(6-(piperazine-1-carbonyl)naphthalen-2-yl)ethyl)amino)quinoline-6-carbonitrile] | 756 nM | – | – | – | – |
